# Values quoted from earlier work as cited in patent publication US20260207579A1, “VITAMIN B SUPPLEMENTATION TO TREAT PITUITARY PARS INTERMEDIA DYSFUNCTION (PPID) IN EQUIDS” (MARS INCORPORATED, priority 2022, published 2026).
# Where a name gives a salt, the structure may show the parent alone.
# How the values were obtained:
# [1] = test system: brain cells; conditions: species other than the horse
# [2] = 3 g/day, mares, mean BW of ~500 kg
# [3] = test system: horses
# [4] = test system: adult Thoroughbred horses; conditions: 3 g/day for 6 weeks, exercising adult Thoroughbred horses likely around 500 kg
# [5] = 5 g/day, horses
# [6] = test system: dopamine production; conditions: over the long term, mice
# [7] = test system: PPID
# [8] = test system: dementia; conditions: humans with dementia and concurrent vitamin B12 deficiency
compound,measurement,setting,value
"O=C(O)c1cccnc1 [NA, nicotinic acid]",intracellular NAD+ levels,[1],increase
same,bioavailability of NAD+ precursors in the follicular fluid,[2],increased
same,plasma concentrations of NAD+ precursors,[2],no apparent increase
"N[C@@H](Cc1c[nH]c2ccccc12)C(=O)O [Tryptophan, tryptophan]",behavioural effects,[3],both excitatory and sedative effects
same,toxicity,[3]; high doses,hemolytic anemia and symptoms of respiratory distress
O=C(O)c1cccnc1 [niacin],adverse effects,[4],no measured adverse effects
same,benefits as putative ergogenic aid,[4],no apparent benefits
same,plasma and urine concentrations of NAD+ precursors,[5],increases
NC(=O)c1ccc[n+]([C@@H]2O[C@H](CO)[C@@H](O)[C@H]2O)c1 [nicotinamide riboside],dopamine production,[6],may downregulate dopamine production
CCCN1C[C@H](CSC)C[C@@H]2c3cccc4[nH]cc(c34)C[C@H]21 [pergolide mesylate],clinical outcome in PPID,[7],clinical improvement
vitamin B12,effect of supplementation,[8],beneficial
